US6120762A, “C-terminal peptides of interferon γ” (priority 1998, dated 2000)
“And” between values parts separate entries of the source, which are not always exact repeats. Identical values can stand only once.

Tested on: VSV
Type: cell-based, Vesicular stomatitis virus

Human IFNγ
Effect on virus yield: had no effect

B1: muIFNγ (protein, UniProt P01580 23-155, looked up)
Interferon gamma: HGTVIESLESLNNYFNSSGIDVEEKSLFLDIWRNWQKDGDMKILQSQIISFYLRLFEVLKDNQAISNNISVIESHLITTFFSNSKAKKDAFMSIAKFEVNNPQVQRQAFNELIRVVHQLLPESSLRKRKRSRC
Virus yield: 1.2 × 10^8 and 1.6 × 10^10
